# In patent publication US7189745B1, “Compounds” (SmithKline Beecham Corporation, priority 1999, dated 2007):
# How the values were obtained:
# activated tie 2 kinase = molecular target: T1, activated tie 2 kinase (Homo sapiens, UniProt Q02763); experiment: Fluorescence polarization for Tie 2 kinase; type: biochemical; details: fluorescence polarization assay, 250 uM ATP, 10 uM peptide substrate
# T1 construct: a baculovirus expressed GST fusion for Tie2 kinase domain was constructed and expressed using the commercial vector pAcG I (Pharmingen); GST; made in house
# T1 sequence (Q02763 824-1096 limits assumed): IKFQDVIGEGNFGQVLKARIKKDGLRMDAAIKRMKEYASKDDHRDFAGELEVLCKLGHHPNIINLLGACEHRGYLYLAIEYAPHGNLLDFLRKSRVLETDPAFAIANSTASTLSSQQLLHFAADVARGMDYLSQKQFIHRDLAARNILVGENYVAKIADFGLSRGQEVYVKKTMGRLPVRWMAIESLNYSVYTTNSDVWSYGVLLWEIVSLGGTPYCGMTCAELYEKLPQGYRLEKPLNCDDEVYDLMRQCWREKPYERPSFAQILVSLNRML
# Method: 2. Fluorescence Polarization for Tie 2 Kinase
# 2% DMSO (when screening compounds)
# activated tie 2 kinase * see activation protocol below
# For a 50 ul reaction add the following to each well of a 96-well black half-area plate (Costar, cat# 3694) • 1.5 ul of compound in 20% DMSO • 5 ul 9× kinase buffer. • 5 ul 2.5 mM ATP. • 5 ul 100 uM peptide substrate. • 25 ul PTK detection mix (Panvera, P-2652, 50 ml—UK distributor is Cambridge Bioscience) • 5 ul activated tie 2 kinase (protocol below) diluted in 1× buffer to initiate the reaction. • 7. Read polarization on an FP instrument cycling for 30–50 minutes in accordance with enzyme activity.
# Activation of Tie 2 Kinase Protocol:
# • 1. Incubate 5 uM tie 2 kinase in the 300 uM ATP and the buffering conditions described above. • 2. Allow to incubate at 27° C. for 2 hours. • 3. Add 2.5 ml reaction to a NAP-25 desalting column (Pharmacia Biotech cat. no. 17-0852-02) pre-equilibrated in 20 mM Tris-HCl pH 7.5, 100 mM NaCl2 to separate the ATP from the enzyme. • 4. Elute the enzyme with 5.0 ml 20 mM Tris-HCl pH 7.5, 100 mM NaCl2; the protein concentration should be 2.5 uM at this point. • 5. Aliquot out the enzyme and store at −80° C. as soon as possible. B. Measurement of Tie2 Receptor Signal Transduction—a Cellular Assay
# Tie2 kinase = molecular target: T2, Tie2 kinase (Homo sapiens, UniProt Q02763); experiment: Tie2 kinase autophosphorylation flashplate assay; type: biochemical; details: ATP final 30 uM
# T2 construct: a baculovirus expressed GST fusion for Tie2 kinase domain was constructed and expressed using the commercial vector pAcG I (Pharmingen); GST; made in house
# T2 sequence (Q02763 824-1096 limits assumed): as above
# Text: A partial cDNA clone for the Tie2 receptor was used to make protein for Tie kinase studies. In order to generate the primary screening assay, a baculovirus expressed GST fusion for Tie2 kinase domain was constructed and expressed using the commercial vector pAcG I (Pharmingen).
# This final construct was transfected into Baculovirus and soluble GST fusion products used in the screening assay.
# Tie2 kinase activity assay: The Tie2 kinase activity assay was typically run in one of 2 ways described as follows. Minor variations in the assay give similar results.
# 1. Autophosphorylation flashplate assay
# Kinase buffer (final 20 mM Tris-HCl, pH7.0, 100 mM NaCl, 12 mM MgCl2, 1 mM DTT).
# Gamma ^33p-ATP (usually final amount of 0.5–1 uCi/well)
# ATP (final 30 uM, or other desired concentration)
# Flashplate (96-well, polystyrene microplate with plastic scintillator coated wells)
# TopCount (microplate scintillation counter)
# Turn on incubator shaker and adjust temperature to 30° C.
# Add 20 ul of 3× kinase buffer per well to the Flashplate
# Add 20 ul of protein per well except for background. Compounds added, typically in DMSO stocks, at 1–2 ul.
# Add 20 ul mixture of gamma ^33p-ATP and cold ATP per well.
# Cover with transparent polyester film.
# Incubate at 30° C. for two hours in shaker, or desired time. […]
# Read plate on TopCount or other counting instrument. Results are calculated as % inhibition […]
# [1] = system: angiogenesis (vascular density) in air pouch granuloma; experiment: Murine air pouch granuloma model of inflammatory angiogenesis; type: in vivo, mice; details: positive control
# Text: Measurement of Angiogenesis In Vivo—Murine Air Pouch Granuloma Model:
# The murine airpouch granuloma model of chronic inflammation (Kimura et al., 1985, J. Pharmacobio-Dyn., 8:393–400; Colville-Nash et al., 1995, J. Pharm. and Exp. Ther., 274:1463–1472) whose disclosure is incorporated herein by reference in its entirety, is characterized by inflammatory cell influx, fibrous tissue proliferation and intense angiogenesis. […] In addition, angiogenesis can be accurately quantitated by a vascular casting method.
# Day 1, mice are anesthetized using Aerrane (isoflurane) gas (5%) or other approved methods, after which 3 mls of air is injected into the dorsal subcutaneous tissue using a 27 g needle. Mice are allowed to recover. […]
# When the granuloma is removed it is weighed and then dried for 3 days at 45° C. and reweighed. […] The carmine content is then determined against a carmine red standard curve (0.5 to 2 mg/ml) generated in extracted tissue from non carmine treated animals and read at 490 nm. Sample and standard values are determined typically using DeltaSoft Elisa analysis software (Biometallics Inc., Princeton, N.J.). […]
# The effect of compounds on vascular density was typically measured for 6 days after induction of the granuloma. This time point has been determined to be at or near the peak of angiogenesis. […] Medroxyprogesterone had no effect on granuloma size as measured by dry weight.
Compound,IC50 (activated tie 2 kinase) [nM],IC50 (Tie2 kinase) [nM],maximum reduction (vascular density) ([1]; measured 6 days after induction of the granuloma) [%],effect on granuloma size as measured by dry weight ([1]; murine air pouch granuloma)
"COc1ccc2cc(-c3nc(C(C)(C)CNC(=O)OC(C)(C)C)[nH]c3-c3ccncc3)ccc2c1 [Example 1, (2-(4-(6-methoxynapthalen-2-yl)-5-pyridin-4-yl-1H-imidazol-2-yl)-2-methyl-propyl)-carbamic acid tert-butyl ester]",< 1000,< 1000,–,–
medroxyprogesterone,–,–,50,no effect
